# Patent US12404345B2, “Humanized antibodies against iRHOM2” (SCIRHOM GMBH, priority 2021, dated 2025)
# System: PMA-induced release of endogenous TGFα from human PC3 prostate cancer cells
# Assay: ELISA-based TGFα release assay, PMA-induced, PC3 cells
# Assay type: cell-based
# Conditions: PC-3, Batimastat 10 μM, PMA 25 ng/ml, 2 hours
# Description: In the following study, ELISA-based TGFα release assays were performed to analyze the inhibitory effects of the antibodies of the invention on PMA-induced release of endogenous TGFα from human PC3 prostate cancer cells.
# In brief, on day 1, Nunc black MaxiSorp® 96-well plates (Thermo Fisher Scientific, USA) were coated overnight with 100 μl per well of goat anti-human TGFα capture antibody (provided as part of the DuoSet ELISA kit) at 0.4 μg/ml TBS at 4° C. 80,000 PC3 (European Collection of Authenticated Cell Cultures, UK) cells in 100 μl of normal growth medium were seeded in each well of F-bottom 96-well cell culture plates (Corning, USA) and incubated at 37° C., 5% CO2 overnight. On day 2, the capture antibody solution was removed and MaxiSorp® plates were blocked with 300 μl per well of TBS, 1% BSA at room temperature for 1-2 hours. […] Using an infinite M1000 (Tecan Group, Switzerland) microplate reader, the fluorescence of each well was collected at an excitation wavelength of 435 nm and an emission wavelength of 555 nm.
smiles,measurement,value
CNC(=O)[C@H](Cc1ccccc1)NC(=O)[C@H](CC(C)C)[C@H](CSc1cccs1)C(=O)NO [Batimastat],inhibition at 10 µM,90.7%
